From US12338264B2, “Crystalline potassium salt of 2-O-α-D-glucosyl-L-ascorbic acid and method for producing the same” (NAGASE VIITA CO., LTD., priority 2019, dated 2025)

Assays:
[1] = pH of 1% by mass aqueous solution; type: physicochemical; conditions: dissolved in deionized water
Procedure: 1% by mass of aqueous solution of the crystal obtained in Experiment 1 was prepared and its pH was measured.
A commercially available particulate composition containing anhydrous crystalline ascorbic acid 2-glucoside (product name “Ascofresh” (registered trademark), commercialized by Hayashibara Co., Ltd., Okayama, Japan) and a hydrous crystalline potassium salt of ascorbic acid 2-glucoside, obtained by the method in the Experiment 1 were made into compositions with the ratios by mass ranging from 100:0 to 0:100 as shown in Table 3. Each of the resulting compositions was dissolved in deionized water to give a concentration of 1% by mass, following by measuring the pHs of the resulting solutions.

[2] = Hygroscopicity: mass increase on storage at 75.2% relative humidity; type: physicochemical; conditions: relative humidity 75.2%; for Increase rate of mass: at room temperature, after storage for 24 hours
Procedure: An experiment was carried out to compare the hygroscopicity of both the hydrous crystalline potassium salt of ascorbic acid 2-glucoside, obtained by the method in the Experiment 1, and the hydrous crystalline sodium salt of ascorbic acid 2-glucoside, obtained by the method described in Patent Literature 10. That is, 0.5 g each of the hydrous crystalline potassium salt of ascorbic acid 2-glucoside and the hydrous crystalline sodium salt of ascorbic acid 2-glucoside were weighted and stored in a desiccator conditioned to 75.2% relative humidity (RH) using saturated salt solution for 24 hours at room temperature. After that, the mass of each was measured, the mass increased by moisture absorption was determined, and the increase rate of mass {(Mass increased by storage)/(Mass at the beginning of storage)×100} (% by mass) was determined.

| pH of 1% by mass aqueous solution [1] | Increase rate of mass [2] [% by mass] | Increase rate of mass relative to that of the hydrous crystalline sodium salt of ascorbic acid 2-glucoside ([2]; room temperature, 24 hours) | Molecule |
| --- | --- | --- | --- |
| 2.2 | – | – | O=C1O[C@H]([C@@H](O)CO)C(O)=C1O[C@H]1O[C@H](CO)[C@@H](O)[C@H](O)[C@H]1O [2-O-α-D-Glucosyl-L-ascorbic acid] |
| 12.7 | 9.1 | under 60% | O=C1O[C@H]([C@@H](O)CO)C([O-])=C1O[C@H]1O[C@H](CO)[C@@H](O)[C@H](O)[C@H]1O.[K+] [hydrous crystalline potassium salt of ascorbic acid 2-glucoside] |
| – | 15.8 | – | hydrous crystalline sodium salt of ascorbic acid 2-glucoside [reference compound] |
